{"source": "paper PMC5666424", "about": "“Marine-Derived 2-Aminoimidazolone Alkaloids. Leucettamine B-Related Polyandrocarpamines Inhibit Mammalian and Protozoan DYRK & CLK Kinases” (Marine Drugs, 2017)", "key": {"FLT3(ITD)": {"tested_on": "FLT3(ITD)", "assay": "KinomeScan", "type": "binding, human", "details": "1 μM", "description": "(§1) Assays were performed essentially as described previously. For most assays, kinase-tagged T7 phage strains were grown in parallel in 24-well blocks in an E. coli host derived from the BL21 strain. E. coli were grown to log-phase and infected with T7 phage from a frozen stock (multiplicity of infection ~0.1) and incubated with shaking at 32 °C until lysis (~90 min). The lysates were centrifuged (6000× g) and filtered (0.2 μm) to remove cell debris. The remaining kinases were produced in HEK-293 cells and subsequently tagged with DNA for qPCR detection. […] The liganded beads were blocked with excess biotin and washed with blocking buffer (SeaBlock (Pierce, ThermoFisher Scientific, Illkirch, France), 1% BSA, 0.05% Tween 20, 1 mM DTT) to remove unbound ligand and to reduce non-specific phage binding. […] An 11-point threefold serial dilution of each test compound was prepared in 100% DMSO at 100× final test concentration which and subsequently diluted to 1× in the assay. All reactions were performed in polystyrene 96-well plates in a final volume of 0.135 mL. […] The kinase concentration in the eluates was measured by qPCR."}, "EGFR(L747-T751del,Sins)": {"tested_on": "EGFR(L747-T751del,Sins)", "assay": "KinomeScan", "type": "binding, human", "details": "1 μM", "description": "as §1"}, "DYRK1A": {"biological_target": "DYRK1A (Homo sapiens, UniProt Q13627)", "assay": "Thr286-cyclin D1 phosphorylation in SH-SY5Y cells", "type": "cell-based", "set-up": "expressed in transfected cells; host or cells: SH-SY5Y neuroblastoma cells, doxycycline-inducible (gift from Dr. Walter Becker)", "details": "30 μM, 24 h", "experimental": "Cell treatments. SH-SY5Y cells conditionally expressing human DYRK1A [36], under the control of doxycycline (gift from Dr. Walter Becker) were cultured Dulbecco’s Modified Eagle Medium (DMEM): Nutrient Mixture F-12 (DMEM/F-12, Gibco, c/o Invitrogen, Saint Aubin, France) containing 1% Penicillin Streptomycin mixture (Gibco) and 10% fetal bovine serum (FBS, Gibco) in a humidified, 5% CO2 incubator at 37 °C. Cells were split routinely once a week. They were first rinsed with phosphate buffered saline (PBS, Gibco) and detached from the plate bottom using 2 mL Trypsin (Gibco) at 37 °C for 3–4 min. Eight mL of fresh medium were added to the cell suspension and the mix was centrifuged for 3 min at 1000 rpm. The cell pellet was resuspended in fresh medium before seeding (½ dilution) in new 150 mm plates. First, 1 μg/mL doxycycline was used to induce DYRK1A expression and cells were incubated 24 h in a humidified, 5% CO2 incubator at 37 °C. Drugs (0, 3 or 30 μM final) were then added with a final concentration of 0.1% DMSO and cells were incubated for an additional 24 h in a humidified, 5% CO2 incubator at 37 °C. Afterwards, cells were scrapped in medium and centrifuged for 5 min at 3000 rpm at 4 °C. The pellets were washed twice with PBS, centrifuge for 5 min at 10,000 g at 4 °C, snap-frozen in liquid nitrogen and kept at −80 °C.\nWestern blot analysis. […]"}, "SRC": {"biological_target": "T1, SRC (Homo sapiens, UniProt P12931)", "T1 construct": "purchased DiscoverX (KINOMEscan)", "T1 sequence (P12931 whole entry)": "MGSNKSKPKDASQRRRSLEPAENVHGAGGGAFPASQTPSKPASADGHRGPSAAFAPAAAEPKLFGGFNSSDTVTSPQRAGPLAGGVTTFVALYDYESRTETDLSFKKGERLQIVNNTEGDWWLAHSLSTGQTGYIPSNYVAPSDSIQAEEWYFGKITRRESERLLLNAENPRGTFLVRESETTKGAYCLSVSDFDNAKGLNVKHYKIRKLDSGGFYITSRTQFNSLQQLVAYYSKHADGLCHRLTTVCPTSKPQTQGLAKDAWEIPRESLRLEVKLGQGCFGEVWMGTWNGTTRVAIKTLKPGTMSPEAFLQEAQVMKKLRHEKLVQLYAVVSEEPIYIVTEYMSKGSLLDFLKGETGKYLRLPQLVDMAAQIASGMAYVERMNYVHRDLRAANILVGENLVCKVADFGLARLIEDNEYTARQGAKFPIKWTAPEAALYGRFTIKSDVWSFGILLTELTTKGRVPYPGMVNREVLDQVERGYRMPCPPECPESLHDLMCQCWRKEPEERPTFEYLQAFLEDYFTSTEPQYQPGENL", "assay": "KinomeScan", "type": "binding", "details": "1 μM"}, "CAMK2D": {"biological_target": "T2, CAMK2D (Homo sapiens, UniProt Q13557)", "T2 construct": "purchased DiscoverX (KINOMEscan)", "T2 sequence (Q13557 whole entry)": "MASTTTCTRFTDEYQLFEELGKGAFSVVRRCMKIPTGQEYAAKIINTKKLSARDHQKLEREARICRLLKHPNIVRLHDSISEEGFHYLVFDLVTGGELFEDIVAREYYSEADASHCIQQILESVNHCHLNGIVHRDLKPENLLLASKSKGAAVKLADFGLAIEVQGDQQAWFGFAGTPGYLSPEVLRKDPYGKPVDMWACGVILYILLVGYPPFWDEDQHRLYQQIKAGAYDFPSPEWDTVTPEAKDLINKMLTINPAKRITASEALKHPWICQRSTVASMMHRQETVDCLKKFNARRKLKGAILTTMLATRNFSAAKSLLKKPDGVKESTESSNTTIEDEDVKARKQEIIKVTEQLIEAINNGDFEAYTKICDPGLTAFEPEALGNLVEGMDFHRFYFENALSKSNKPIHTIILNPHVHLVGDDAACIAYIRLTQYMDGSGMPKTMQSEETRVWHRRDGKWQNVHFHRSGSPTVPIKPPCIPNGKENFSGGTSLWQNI", "assay": "KinomeScan", "type": "binding", "details": "1 μM"}, "ACVR1": {"biological_target": "T3, ACVR1 (Homo sapiens, UniProt Q04771)", "T3 construct": "purchased DiscoverX (KINOMEscan)", "T3 sequence (Q04771 21-509)": "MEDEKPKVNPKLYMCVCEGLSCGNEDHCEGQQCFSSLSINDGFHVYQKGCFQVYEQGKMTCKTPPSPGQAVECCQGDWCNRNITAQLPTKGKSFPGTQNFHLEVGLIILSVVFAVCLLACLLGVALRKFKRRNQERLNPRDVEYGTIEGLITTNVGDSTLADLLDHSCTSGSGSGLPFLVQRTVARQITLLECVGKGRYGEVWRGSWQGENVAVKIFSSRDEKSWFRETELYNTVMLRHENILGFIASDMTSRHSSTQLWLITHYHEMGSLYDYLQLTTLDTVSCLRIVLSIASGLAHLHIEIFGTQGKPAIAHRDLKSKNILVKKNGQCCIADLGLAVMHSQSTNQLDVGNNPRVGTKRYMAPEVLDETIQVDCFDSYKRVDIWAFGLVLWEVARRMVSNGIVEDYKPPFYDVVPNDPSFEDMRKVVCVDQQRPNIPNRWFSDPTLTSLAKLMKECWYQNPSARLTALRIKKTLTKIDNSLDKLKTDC", "assay": "KinomeScan", "type": "binding", "details": "1 μM"}, "CDC2L1": {"biological_target": "T4, CDC2L1 (Homo sapiens, UniProt P21127)", "T4 construct": "purchased DiscoverX (KINOMEscan)", "T4 sequence (P21127 whole entry)": "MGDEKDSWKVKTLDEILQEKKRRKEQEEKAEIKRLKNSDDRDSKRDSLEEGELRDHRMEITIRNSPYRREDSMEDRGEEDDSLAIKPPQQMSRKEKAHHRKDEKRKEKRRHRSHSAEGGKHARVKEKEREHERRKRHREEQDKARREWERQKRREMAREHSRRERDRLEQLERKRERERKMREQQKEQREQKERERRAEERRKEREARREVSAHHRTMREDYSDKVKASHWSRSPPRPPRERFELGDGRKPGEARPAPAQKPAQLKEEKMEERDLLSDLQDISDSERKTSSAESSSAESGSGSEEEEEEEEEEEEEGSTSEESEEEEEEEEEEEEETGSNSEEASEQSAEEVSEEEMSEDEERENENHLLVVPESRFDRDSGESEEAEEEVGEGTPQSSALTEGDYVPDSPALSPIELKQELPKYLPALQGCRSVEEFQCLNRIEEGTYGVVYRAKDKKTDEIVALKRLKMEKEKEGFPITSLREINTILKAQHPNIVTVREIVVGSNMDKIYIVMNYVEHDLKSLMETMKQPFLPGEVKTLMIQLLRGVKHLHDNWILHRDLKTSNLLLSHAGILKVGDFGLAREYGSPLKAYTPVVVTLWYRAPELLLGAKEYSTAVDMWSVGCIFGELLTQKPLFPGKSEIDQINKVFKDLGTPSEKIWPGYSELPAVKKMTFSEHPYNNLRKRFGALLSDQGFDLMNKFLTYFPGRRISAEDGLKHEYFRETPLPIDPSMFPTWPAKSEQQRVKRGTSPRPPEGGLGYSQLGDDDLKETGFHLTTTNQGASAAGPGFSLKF", "assay": "KinomeScan", "type": "binding", "details": "1 μM"}, "MYO3B": {"biological_target": "T5, MYO3B (Homo sapiens, UniProt Q8WXR4)", "T5 construct": "purchased DiscoverX (KINOMEscan)", "T5 sequence (Q8WXR4 whole entry)": "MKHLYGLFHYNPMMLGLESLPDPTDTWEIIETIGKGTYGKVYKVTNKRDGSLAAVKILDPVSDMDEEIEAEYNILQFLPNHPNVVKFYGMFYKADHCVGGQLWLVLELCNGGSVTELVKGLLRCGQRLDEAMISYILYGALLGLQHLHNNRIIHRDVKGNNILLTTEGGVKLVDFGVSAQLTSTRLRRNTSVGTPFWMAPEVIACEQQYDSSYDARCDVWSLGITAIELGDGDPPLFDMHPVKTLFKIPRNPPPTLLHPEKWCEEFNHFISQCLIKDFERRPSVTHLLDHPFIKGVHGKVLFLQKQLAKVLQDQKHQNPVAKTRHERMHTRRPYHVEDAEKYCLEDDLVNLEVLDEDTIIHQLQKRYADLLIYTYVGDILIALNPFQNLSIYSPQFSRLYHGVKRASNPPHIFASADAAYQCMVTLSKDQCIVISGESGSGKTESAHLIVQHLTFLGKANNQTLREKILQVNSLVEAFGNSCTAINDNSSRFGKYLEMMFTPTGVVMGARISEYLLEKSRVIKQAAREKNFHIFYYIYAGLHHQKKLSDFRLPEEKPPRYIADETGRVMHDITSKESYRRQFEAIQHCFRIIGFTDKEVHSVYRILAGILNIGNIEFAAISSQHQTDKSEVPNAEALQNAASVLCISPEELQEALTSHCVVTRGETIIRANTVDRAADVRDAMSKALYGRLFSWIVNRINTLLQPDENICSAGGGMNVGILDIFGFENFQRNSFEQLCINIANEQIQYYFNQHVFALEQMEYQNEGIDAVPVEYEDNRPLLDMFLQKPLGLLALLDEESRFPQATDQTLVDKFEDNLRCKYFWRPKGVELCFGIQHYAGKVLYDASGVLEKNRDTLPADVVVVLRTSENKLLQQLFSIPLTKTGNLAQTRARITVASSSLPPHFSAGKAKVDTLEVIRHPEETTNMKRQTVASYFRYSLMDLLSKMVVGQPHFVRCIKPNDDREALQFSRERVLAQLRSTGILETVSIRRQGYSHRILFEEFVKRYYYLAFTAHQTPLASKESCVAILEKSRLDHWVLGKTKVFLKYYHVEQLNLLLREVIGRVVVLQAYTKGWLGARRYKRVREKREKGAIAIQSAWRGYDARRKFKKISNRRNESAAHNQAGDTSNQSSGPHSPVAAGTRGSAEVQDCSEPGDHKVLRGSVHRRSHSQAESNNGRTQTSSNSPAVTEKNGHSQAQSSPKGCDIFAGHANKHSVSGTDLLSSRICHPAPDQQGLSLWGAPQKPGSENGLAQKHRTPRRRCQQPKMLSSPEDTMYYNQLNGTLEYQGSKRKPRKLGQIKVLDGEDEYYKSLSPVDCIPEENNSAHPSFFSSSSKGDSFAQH", "assay": "KinomeScan", "type": "binding", "details": "1 μM"}, "ERK1": {"biological_target": "T6, ERK1 (Homo sapiens, UniProt P27361)", "T6 construct": "purchased DiscoverX (KINOMEscan)", "T6 sequence (P27361 whole entry)": "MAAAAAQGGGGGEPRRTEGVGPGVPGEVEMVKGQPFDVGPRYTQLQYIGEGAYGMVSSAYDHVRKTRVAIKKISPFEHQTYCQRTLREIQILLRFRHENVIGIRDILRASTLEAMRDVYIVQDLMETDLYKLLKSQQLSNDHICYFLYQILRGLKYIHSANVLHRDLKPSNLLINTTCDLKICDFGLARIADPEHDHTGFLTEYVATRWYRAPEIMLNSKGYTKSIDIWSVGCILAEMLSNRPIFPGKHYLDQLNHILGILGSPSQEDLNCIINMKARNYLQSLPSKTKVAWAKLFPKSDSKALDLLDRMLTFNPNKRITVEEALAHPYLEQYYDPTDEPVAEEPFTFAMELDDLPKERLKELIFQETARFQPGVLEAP", "assay": "KinomeScan", "type": "binding", "details": "1 μM"}}, "data": [{"smiles": "COc1cc(/C=C2\\N=C(N)NC2=O)ccc1O", "note": "[Polyandrocarpamine A]", "values": [{"measurement": "Score", "setting": "FLT3(ITD)", "value": 100}, {"measurement": "Score", "setting": "EGFR(L747-T751del,Sins)", "value": 92}, {"measurement": "Phosphorylation of cyclin D1 at Thr286", "setting": "DYRK1A", "value": "partially inhibited"}, {"measurement": "Score", "setting": "SRC", "value": 100}, {"measurement": "Score", "setting": "CAMK2D", "value": 100}, {"measurement": "Score", "setting": "ACVR1", "value": 100}, {"measurement": "Score", "setting": "CDC2L1", "value": 100}, {"measurement": "Score", "setting": "MYO3B", "value": 88}, {"measurement": "Score", "setting": "ERK1", "value": 100}]}]}
